2 compounds from US8598137B2, “Use of SAM68 for modulating signaling through the TNF receptor” (California Institute of Technology, priority 2010, dated 2013) can be followed below.

Assay [1] deals with NF-κB activation in Sam68 knockout fibroblast cells. The assay is described as follows: IL-1β induced NF-κB activation (IκBα degradation, p65 nuclear translocation). It counts as cell-based, mouse. Conditions: 100 ng/ml IL-1 beta. On the procedure:
Wild type control and Sam68 knockout fibroblast cells were treated with TNF (Recombinant human TNFα from Peprotech), and IκBα degradation and nuclear translocation of NF-κB protein were used to monitor the activation of their NF-κB pathway (IκBα antibody was from Santa Cruz Biotechnology; assessment of NF-κB nuclear translocation, cytoplasmic and nuclear extracts were prepared as described by Schreiber et al., 1989).
The Sam68 knockout fibroblast cells were treated with IL-1β (R&D Systems), another proinflammatory cytokine. […] Thus, the NF-κB activation pathway is functional in these Sam68 knockout cells, while Sam68 activity is specifically related to TNF signaling.

The test system of assay [2] is Wildtype and Sam68 knockout cells. The following applies: hydrogen peroxide 100 μM, 24 hours. From the text: Cell death via the intrinsic pathway of apoptosis can be induced by genotoxic and oxidative stress (Roos and Kaina, 2006. Trends in molecular medicine 12, 440-450.) (Dumont et al., 1999. Oncogene 18, 747-757.).

As to “IL-1β: proinflammatory cytokine, recombinant human IL-1 beta (R&D Systems)”, the “NF-κB activation (IκBα degradation and nuclear translocation of p65)” value in assay [1] is given as “remained intact”.
Turning to `OO` [hydrogen peroxide], in assay [2], the “death induction, cell morphology” value is “caused death induction in both wildtype and Sam68 knockout cells”.
